Data on one compound can be found in patent publication US11958868B2, “Methods of using metal complexes to promote wound healing” (University of Macau, priority 2022, dated 2024).

Molecules are shown by their SMILES.

In one experiment the target is T1, VHL-HIF-1α interaction (Homo sapiens, UniProt P40337).
T1 construct: endogenous in cells; host or cells: HEK293
Kind of experiment: Co-immunoprecipitation of hydroxy-HIF-1α with VHL in HEK293 cells. The class given is cell-based. Conditions: HEK293 cells, 0.3, 1, 3, 6 and 9 μM for 2 h. How it is done: HEK293 cells were treated with vehicle DMSO (1% for 2 h), 1a (0.3, 1, 3, 6 and 9 μM for 2 h), VH298 (100 μM for 2 h), MG132 (20 μM for 3 h), or FG-4592 (100 μM for 2 h) before lysis. Cell lysates were collected and incubated with VHL antibody overnight at 4° C. The proteins were immunoprecipitated using agarose beads. The levels of hydroxy-HIF-1α co-precipitated with VHL were detected using a hydroxy-HIF-1α antibody, and then visualized using ECL Western Blotting Detection Reagent (GE Healthcare). (B) Cellular thermal shift assays to monitor cellular target engagement of VHL and HIF-1α. HEK293 cell lysates were treated with 1a (3 μM) at room temperature for 30 min and then heated at different temperature ranging from 48° C. to 68° C. for 5 min. The protein samples were collected and detected by Western blotting using either VHL or PHD2 antibodies. (C) Fluorescence-based protein thermal shift assay of VBC in the presence or absence of VH298 (100 μM) and complex 1a (100 μM). (D) ITC titration of complex 1a (300 μM) into recombinant VHL protein (30 μM). ITC experiments were carried in a MicroCal PEAQ-ITC Isothermal Titration Calorimeter (Malvern Panalytical). […] Data are expressed as means±SD (n=3 independent experiments for figures a and b, samples for figures c and e), P values were calculated using a two-sided t-test. *P<0.05, **P<0.01 vs. DMSO group. […]

The test system of experiment [1] is wound tissue of normal and diabetic mice. Kind of experiment: Wound tissue analysis (H&E, Masson's trichrome, laser doppler, CD31, Western blot, qRT-PCR) in normal and diabetic mice. The format is in vivo. The source says: (A) Timeline for in vivo experiments. (B) Image of representative wound (left) and wound closure rate (right) (n=5 mice). (C) H&E and Masson's trichrome staining of dorsal skin section and skin thickness from the top of the epidermis to the bottom of the dermis in mice after 8 days post-injury (n=4 mice). Scale bar=200 μm. (D) Laser doppler imager in dorsal skin: representative images were shown for each group (left) and baseline perfusion on back skin of mice (right) after 2 days post-injury (dotted line circle represents the wound bed in mice of each group and arrow represents perfusion intensity (n=5 mice). (E) CD31 and DAPI double staining in wound bed of mice after 8 days post-injury (n=4 mice). Scale bar=50 μm. Data are expressed as means±SD, P values were calculated using a one-way ANOVA with Tukey's multiple comparison test. #P<0.05, ##P<0.01 WT vs. db/db, *P<0.05, **P<0.01 1a vs. vehicle.
(A) Western blot analyses and quantitation of HIF-1α, VEGF, GLUT1, and EPO in wound tissue (n=3 mice). All proteins were normalized by β-actin. (B) The mRNA levels of HIF-1α target genes involved in wound healing were analyzed by qRT-PCR in wound tissues (n=5 mice). Data are expressed as means±SD, P values were calculated using a one-way ANOVA with Tukey's multiple comparison test. P<0.05, P<0.01 WT vs. db/db, *P<0.05, **P<0.01 1a vs. vehicle. S
The epithelial thickness of the regenerated skin in each group was compared using H&E staining and Masson's trichrome staining. […] One of the key processes related to wound healing is tissue angiogenesis.
After electrophoresis of protein samples (30 μg of total protein) on SDS-PAGE gels, the samples were transferred to a PVDF membrane and incubated at room temperature with blocking solution for 1 h. The membrane was treated with primary antibodies and incubated overnight at 4° C. After 1 h incubation with the secondary antibodies (Supplementary Table Sl), protein bands were visualized using ECL Western Blotting Detection Reagent (GE Healthcare).
After fixation in 4% paraformaldehyde, the skin samples were embedded in paraffin and sectioned ([…]). For histological evaluation, sections were deparaffinized and rehydrated followed by hematoxylin and eosin (H&E) and Masson's trichrome staining. For immunohistochemical staining of CD31, the wound tissue sections were deparaffinized and stained with CD31 antibody (1:1000; ABclonal, Cambridge, MA, USA). The slides were examined under ×400 magnification to identify the area with the highest vascular density, and five randomly high-power field areas of the highest microvessel density were selected for each section. The average was calculated as the microvessel density of this sample.
In general terms: Immunoblotting shows a protein as a band on a membrane.

Setting [2] is: normal and diabetic mice, 8 days post-injury.

T1 sequence (P40337 whole entry): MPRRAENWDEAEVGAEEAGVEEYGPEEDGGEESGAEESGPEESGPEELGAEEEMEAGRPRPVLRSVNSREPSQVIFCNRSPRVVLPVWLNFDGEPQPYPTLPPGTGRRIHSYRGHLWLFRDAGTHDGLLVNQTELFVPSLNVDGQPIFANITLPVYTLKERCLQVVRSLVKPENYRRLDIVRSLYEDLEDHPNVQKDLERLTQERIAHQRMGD
T1 sequence (Q15370 whole entry partner): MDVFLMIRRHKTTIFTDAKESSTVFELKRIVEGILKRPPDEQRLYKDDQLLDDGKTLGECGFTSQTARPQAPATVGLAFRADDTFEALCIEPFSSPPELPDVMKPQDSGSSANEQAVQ
T1 sequence (Q15369 whole entry partner): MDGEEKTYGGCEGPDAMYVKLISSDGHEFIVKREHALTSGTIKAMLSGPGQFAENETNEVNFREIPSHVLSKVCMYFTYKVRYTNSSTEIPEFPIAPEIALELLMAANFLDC

As to `COc1cc[n+]2c3c1ccc1c(OC)cc[n+](c13)[Ir-3]213([c]2ccccc2-c2cccc[n+]21)[c]1ccccc1-c1cccc[n+]13.F[P-](F)(F)(F)(F)F` [1a], the “Amount of HIF-1α-OH co-precipitating with VHL” value at VHL-HIF-1α interaction is “reduced the amount of HIF-1α-OH co-precipitating with VHL in a dose-dependent manner”. For the same compound, the “HIF-1α target genes in wound tissue, qRT-PCR, WT/NC mice” value in experiment [1] (WT/NC mice) was “weaker effects”. Also, the “Expression of HIF-1α, VEGF, GLUT1 and EPO in wound tissue (Western blotting)” value in experiment [1] (WT/NC, db/db, HFD/STZ and STZ groups, 8 days post-wounding, vs vehicle) is “significantly increased”. Also, the “HIF-1α target genes (HSP-90, VEGFR-1, SDF-1, SCF, Tie-2) in wound tissue, qRT-PCR, diabetic mice” value in experiment [1] (diabetic mice) is reported as “also increased in the wound tissue of 1a-treated diabetic mice”. Also, the “Microvessel density in wound areas (CD31 immunostaining)” value in experiment [1] (normal and diabetic groups, 8 days post-injury) is recorded as “significantly enhanced microvessel density”. Moreover, the “Skin blood flow rate (skin perfusion pressure test)” value in experiment [1] (normal and diabetic mice, 2 days post-injury) is listed as “remarkably increased skin blood flow rate”. Besides, in experiment [1] (setting [2]), the “Collagen deposition in wound areas” value is recorded as “enhanced collagen deposition in wound areas” and the “Skin thickness (H&E, Masson's trichrome)” value is recorded as “increased skin thickness”.
